Test results published in PMC3927586, “Protein kinase C-delta inactivation inhibits the proliferation and survival of cancer stem cells in culture and in vivo” (BMC Cancer, 2014).

How the values were obtained:
PCSC cells = assay: Cytotoxicity (LDH release) in pancreatic cancer stem cells; format: cell-based, human
Experimental: LDH release was assessed by spectrophotometrically measuring the oxidation of NADH in both the cells and media. Cells were seeded in 24-well plates, and exposed to PKCδ inhibitors or vehicle. After different times of exposure, cytotoxicity was quantified by a standard measurement of LDH release with the use of the LDH assay kit (Roche Molecular Biochemicals) according to the manufacturer’s protocol. Briefly, total culture medium was cleared by centrifugation. For assay of released LDH, supernatants were collected. To assess total LDH in cells, Triton X-100 was added to vehicle (control) wells to release intracellular LDH. LDH assay reagent was added to lysates or supernatants and incubated for up to 30 min at room temperature in dark, the reaction was stopped, and the absorbance was measured at 490 nm. The percentage of LDH release was then calculated as the LDH in the supernatants as a fraction of the total LDH.
Figure 2 Effects of PKCδ inhibitors on human cancer stem cells. (A) PCSC and PrCSC cells at 80% confluence were exposed to rottlerin. DMSO served as vehicle control (Vehicle). After 24 and 72 hr of exposure, cell mass was evaluated by MTT assay. Control values were normalized to 100%. p values for comparison between treatments reached significance at 24 hr of exposure (p≤0.01) for both cell types, and remained significant at 72 hr. (B) PCSC and PrCSC cells at 50% confluence were exposed to rottlerin. Cytotoxicity was evaluated by LDH-release assay. Total maximal LDH release was assigned the arbitrary value of 100% (Control). p values for comparison between effects of treatments on LDH release reached significance at 24 hr of exposure (p<0.01) for both cell types, and remained significant at 72 hr. (C) Effects of PKCδ inhibitor on tumor cell clonogenic capacity. PCSC were exposed to vehicle or rottlerin (10 μM) for 6, 18, 24, or 48 hr. Viable cells were enumerated and re-plated in media without inhibitor, and colony numbers were quantitated 15 days later. p values for comparison of treatment effects on clonogenic capacity reached significance (p=0.005) at 18 hr of exposure and remained significant for all subsequent exposure times. The insert is a photograph of stained colonies on plates. (D) Structures of staurosporine, rottlerin, second-generation (KAM1) and third-generation (BJE6-106) derivatives. (E) PCSC and PrCSC cells at 50% confluence were exposed to KAM1 at the indicated concentrations. DMSO served as vehicle control (Vehicle). Cytotoxicity was evaluated by LDH-release assay, as in panel B. p values for comparison between treatment effects on LDH release reached significance at 24 hr of exposure to 2.5 μM KAM1 for PCSC cells and at 10 μM for PrCSC (p≤0.01), and remained significant at 72 hr for all concentrations of KAM1. Error bars represent SEM.

PC3 = assay: Tumor spheroid growth, PC3 prostate cancer; format: cell-based, human; settings: p < 0.001
MCF 10C cells = assay: Tumor spheroid formation, MCF 10C; format: cell-based, human; settings: spheroids enumerated at 10 days
Experimental: Tumor self-renewing and anchorage-independent spheroids were obtained by culturing breast cancer cells MCF7, Hs587T and MDA231; melanoma cells SBcl2 and FM6; human breast cancer stem cells and pancreatic cancer stem cells in stem cell-selective conditions according to the manufacturer’s instructions (StemCell Technologies, Tukwila, WA). Briefly, cancer and cancer stem cells were propagated in 6-well ultra-low adherent plates (Corning) in Complete MammoCult Medium (Human) by adding 50 mL of MammoCult Proliferation Supplements to 450 mL of MammoCult Basal Medium (StemCell Technologies). The following were added to obtain Complete MammoCult Medium: 4 ug/mL Heparin (StemCell Technologies), 0.48 μg/mL hydrocortisone (StemCell Technologies), 200 U penicillin/ml; and 200 μg streptomycin/ml (Invitrogen).
Figure 5 Effects of PKCδ inhibitors on growth and spheroid formation in non-transformed and transformed human breast epithelial cells. […] After 24, 48 and 72 hr of exposure, cell mass was evaluated by MTT assay. […] (C) MCF 10A and MCF 10C cells were plated at 10,000 cells per well in tumor spheroid media, and spheroid formation was assessed at days 10 and 21. […]

[1] = Drug-like properties: bioavailability; settings: in vivo delivery

SMILES | cytotoxicity in PCSC (LDH release) (PCSC cells; dose-dependent, 24 and 72 hr) | inhibition at 10 µM (PC3; Homo sapiens, PC-3, rottlerin at 10 μM) [%] | effect on growth of MCF 10C spheroids (MCF 10C cells; rottlerin at 10 μM) | bioavailability [1] | increase in potency compared to rottlerin, LDH release (PCSC cells; data not shown) | inhibition of tumor spheroid growth, PC3 (PC3; BJE6-106 at 0.5-1.0 μM) [%] | effect on growth of MCF 10C spheroids (MCF 10C cells; BJE6-106 at 1 μM)
CC(=O)c1c(O)c(C)c(O)c(Cc2c(O)c3c(c(C(=O)/C=C/c4ccccc4)c2O)OC(C)(C)C=C3)c1O [rottlerin, Rottlerin, reference compound] | induced cytotoxicity | > 96 | efficiently inhibited | readily bioavailable |  |  | 
CC1(C)C=Cc2cc(CCn3c4ccccc4c4ccccc43)cc(C=O)c2O1 [BJE6-106, 6-(2-(9H-carbazol-9-yl)ethyl)-2,2-dimethyl-2H-chromene-8-carbaldehyde] |  |  |  | poorly bioavailable | greater than 10 fold | > 96 | efficiently inhibited
